According to US7547521B2, “Heteromultimeric ion channel receptor and uses thereof” (McGill University, priority 2000, dated 2009):
Entries after “also recorded” stand apart in the source; their conditions may differ.

Legend:
[1] = test system: homomultimeric (ASIC2A or ASIC3) and heteromultimeric (ASIC-2S.2) channels; experiment: Proton-induced inward currents in oocytes expressing homomultimeric or heteromultimeric ASIC channels; format: cell-based; settings: human and rat ASIC2A, ASIC3 or ASIC-2S.2-expressing oocytes
Protocol: (§1) According to method 1 described above, nuclei of Xenopus oocytes are injected with ASIC2A and ASIC3 cDNAs separately subcloned into pcDNA3 expression vector (1-5 ng). Control oocytes are injected with H2O. Oocytes are maintained at 18° C. in modified Barth's solution. Proton-activated currents are measured by two-electrode voltage clamp 1-3 days after injection. During voltage clamp (−60 mV/−100 mV)), oocytes are bathed in 116 mM NaCl, 2 mM KCl, 1.8 mM CaCl2, 10 mM acetic acid and 5 mM Hepes (pH 7.4 with NaOH). To determine proton-gating, bath solution is quickly switched to a solution of pH<7.4 for 10 sec, then returned to bath solution for washout. The stimulating solution is prepared by lowering the pH of the original bath solution with hydrochloric acid. The osmolality of the solutions is verified with an osmometer and corrected with mannitol or choline chloride. To document ionic selectivity, NaCl is replaced with LiCl or KCl. Current-voltage relationships are determined by stepping from a holding potential of −60 mV to potentials between −100 and +60 mV for 10 seconds before and during stimulation with low pH solution. FIGS. 1A (human) and 1B (rat) compare proton-activated currents carried by homomultimeric ASIC2A and ASIC3 receptors to the heteromultimeric ASIC-2S.2 receptors (ASIC2a+3). […] Species differences are also noteworthy. Indeed, using human subunits, both the early fast and sustained currents are strongly potentiated, while in the case of rat, the major effect appears to be on the sustained current only.
As described in example 2, voltage clamped oocytes expressing the ASIC-2S.2 channels are used to screen for molecules capable of modulating, activating or inhibiting channel activity.

[2] = biological target: T1, human ASIC2S.2 (ASIC2A+3) receptors (Homo sapiens, UniProt Q16515+Q9UHC3, A14P/I85V/M358I/P13Q); experiment: Two-electrode voltage clamp of proton-gated currents in Xenopus oocytes expressing human ASIC2S.2; format: cell-based; settings: 100 μM FMRFamide; normalised to maximal control current at pH 3
T1 construct: allowing RT-PCR amplified full length nucleic acids to be directionally subcloned into pcDNA3; expressed in transfected cells; host or cells: Xenopus laevis oocytes (nuclear injection of pcDNA3 cDNAs)
T1 sequence (Q16515 1-512): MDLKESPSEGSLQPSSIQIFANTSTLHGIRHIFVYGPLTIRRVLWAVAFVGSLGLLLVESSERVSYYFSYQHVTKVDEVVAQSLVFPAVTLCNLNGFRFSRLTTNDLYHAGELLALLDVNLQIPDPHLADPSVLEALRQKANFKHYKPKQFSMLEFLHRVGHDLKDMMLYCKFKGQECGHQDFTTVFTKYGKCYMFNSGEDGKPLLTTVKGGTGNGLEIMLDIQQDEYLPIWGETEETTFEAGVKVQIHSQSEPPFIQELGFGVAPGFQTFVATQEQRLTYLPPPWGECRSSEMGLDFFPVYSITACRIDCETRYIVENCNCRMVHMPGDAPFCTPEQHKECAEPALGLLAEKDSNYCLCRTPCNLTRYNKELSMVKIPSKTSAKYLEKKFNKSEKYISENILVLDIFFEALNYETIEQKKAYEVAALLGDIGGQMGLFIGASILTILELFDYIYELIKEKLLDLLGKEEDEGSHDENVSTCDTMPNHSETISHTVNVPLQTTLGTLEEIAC
T1 sequence (Q9UHC3 1-531 P13Q/A14P/I85V/M358I): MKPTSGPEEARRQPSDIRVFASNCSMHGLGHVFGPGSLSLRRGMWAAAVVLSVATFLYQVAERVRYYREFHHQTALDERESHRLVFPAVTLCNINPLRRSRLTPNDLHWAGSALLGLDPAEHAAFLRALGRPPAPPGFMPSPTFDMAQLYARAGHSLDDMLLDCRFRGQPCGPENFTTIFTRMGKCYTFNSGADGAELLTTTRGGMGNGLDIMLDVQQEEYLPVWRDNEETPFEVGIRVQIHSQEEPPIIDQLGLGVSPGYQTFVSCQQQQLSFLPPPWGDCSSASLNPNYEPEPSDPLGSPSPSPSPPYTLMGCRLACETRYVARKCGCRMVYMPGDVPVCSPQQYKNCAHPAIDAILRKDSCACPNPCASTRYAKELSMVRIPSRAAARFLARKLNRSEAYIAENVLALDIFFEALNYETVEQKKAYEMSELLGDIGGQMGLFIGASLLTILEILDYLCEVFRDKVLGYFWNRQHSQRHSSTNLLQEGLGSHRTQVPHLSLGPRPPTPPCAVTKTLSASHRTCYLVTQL
Protocol: as §1, with “Indeed, using human subunits, both the early fast and sustained currents are strongly potentiated, while in the case of rat, the major effect appears to be on the sustained current only.” left out

## N=C(N)NC(=O)c1nc(Cl)c(N)nc1N [amiloride]
[1]
  Effect on proton-induced inward currents: inhibitory effects; also recorded: antagonistic effects

## [Gd+3] [gadolinium ions, gadolinium]
[1]
  Effect on proton-induced inward currents: antagonistic effects
[1]; listed as gadolinium
  Effect on proton-induced inward currents: inhibitory effects

## FMRFamide
[2]
  Sensitivity and maximal response to acidification (pH dose-response curve): increased
